{
  "source": "patent US20110185440A1",
  "about": "“CISD2-Knockout Mice and Uses Thereof” (NATIONAL YANG-MING UNIVERSITY, priority 2006, published 2011)",
  "key": {"[1]": {"test_system": "Cisd2 knockout mice", "assay": "Muscle and neuron degeneration in Cisd2 knockout mice after resveratrol treatment (H&E staining, TEM)", "format": "in vivo, mouse", "details": "30 mg/kg/day oral from 4- to 12-week old", "excerpt": "(18A-F) H&E staining of transverse sections of skeletal muscle dissected from the 12-week old, male Cisd2 knockout mice with (18A) untreated control, (18B) resveratrol or (18C) H2O treatment, and (18D-F) relative wild-type control. Black arrowheads indicate degenerated transverse fibers. Blue arrows indicate angular fibres which are the evidences of muscle atrophy caused by neuron degeneration. (18G) The standard quantification score of muscle atrophy. (18H) The quantification of degenerative muscle fiberin under resveratrol treated or not. About 1000 muscle fibre in random fields of H&E staining slides were examined for each mouse. Values represent mean±s.d from at least three male samples. […] Myelin sheath degeneration (asterisks) was detected only in the Cisd2 knockout mice. […] (18U) The standard quantification score of axon and myelin sheath degeneration. (18V) The quantification of degenerative sciatic nerve in wild-type, Cisd2 knockout and Cisd2 knockout mice with resveratrol treatment, respectively. […] The standard quantification score of muscle atrophy was prepared. The quantification of degenerative muscle fiberin was measured under resveratrol treated or not. […] Myelin sheath degeneration was detected only in the Cisd2 knockout mice. The standard quantification score of axon and myelin sheath degeneration was created. […]"}, "[2]": {"test_system": "Cisd2 knockout mice", "assay": "Body weight of Cisd2 knockout mice after oral resveratrol treatment", "format": "in vivo, mouse", "details": "30 mg/kg/day oral from 4- to 12-week old; effect after 8-week old; P<0.05 vs untreated control", "description": "(17A) Oral administration of resveratrol (30 mg/kg/day) to Cisd2 knockout mice from 4- to 12-week old. (17B) To analyze the body weight of the Cisd2 knockout mice after resveratrol treatment and compare to 4-week old wild-type mice. Values represent mean±s.d from at least three male samples. Asterisks indicate statistically significant differences compare with untreated control. (*, P<0.05) Resveratrol (30 mg/kg/day) was administered by oral to Cisd2 knockout mice from 4- to 12-week old. The body weight of the Cisd2 knockout mice was analyzed after resveratrol treatment and comparing to 4-week old wild-type mice (FIG. 17)."}},
  "data": [
    {"smiles": "Oc1ccc(C=Cc2cc(O)cc(O)c2)cc1", "note": "[Resveratrol]", "values": [
      {"measurement": "muscle degeneration of the Cisd2 knockout mice", "setting": "[1]; 12-week old male mice, skeletal muscle H&E, skeletal and cardiac muscle ultrastructure", "result": "partial rescue"},
      {"measurement": "neuron degeneration of the Cisd2 knockout mice", "setting": "[1]; 12-week old mice, sciatic nerve TEM, axon and myelin sheath degeneration", "result": "partial rescue"},
      {"measurement": "body weight of Cisd2 knockout mice", "setting": "[2]", "result": "significant reverse"}
    ]}
  ]
}
